The values that follow come from patent publication US20250101052A1, “COMPOUND FOR EGFR KINASE INHIBITOR, COMPOSITION, AND USE THEREOF” (INNOVATION INSTITUTE FOR ARTIFICIAL INTELLIGENCE IN …, priority 2021, published 2025).

Each structure is given as a SMILES string.

In test [1] the target is EGFR^L858R/T790M/C797S kinase (Homo sapiens (Human), UniProt P00533, C797S/L858R/T790M). The experiment in a line: EGFR^L858R/T790M/C797S kinase inhibitory activity experiment. It counts as biochemical. To be noted: in vitro. On the procedure: EGFRL^858R/T790M/C797S kinase inhibitory activity experiment: The compounds of the present invention have excellent in-vitro inhibitory activity against EGFR^L858R/T790M/C797S kinase
Chain of EGFR^L858R/T790M/C797S kinase (P00533 25-1210 T790M/C797S/L858R): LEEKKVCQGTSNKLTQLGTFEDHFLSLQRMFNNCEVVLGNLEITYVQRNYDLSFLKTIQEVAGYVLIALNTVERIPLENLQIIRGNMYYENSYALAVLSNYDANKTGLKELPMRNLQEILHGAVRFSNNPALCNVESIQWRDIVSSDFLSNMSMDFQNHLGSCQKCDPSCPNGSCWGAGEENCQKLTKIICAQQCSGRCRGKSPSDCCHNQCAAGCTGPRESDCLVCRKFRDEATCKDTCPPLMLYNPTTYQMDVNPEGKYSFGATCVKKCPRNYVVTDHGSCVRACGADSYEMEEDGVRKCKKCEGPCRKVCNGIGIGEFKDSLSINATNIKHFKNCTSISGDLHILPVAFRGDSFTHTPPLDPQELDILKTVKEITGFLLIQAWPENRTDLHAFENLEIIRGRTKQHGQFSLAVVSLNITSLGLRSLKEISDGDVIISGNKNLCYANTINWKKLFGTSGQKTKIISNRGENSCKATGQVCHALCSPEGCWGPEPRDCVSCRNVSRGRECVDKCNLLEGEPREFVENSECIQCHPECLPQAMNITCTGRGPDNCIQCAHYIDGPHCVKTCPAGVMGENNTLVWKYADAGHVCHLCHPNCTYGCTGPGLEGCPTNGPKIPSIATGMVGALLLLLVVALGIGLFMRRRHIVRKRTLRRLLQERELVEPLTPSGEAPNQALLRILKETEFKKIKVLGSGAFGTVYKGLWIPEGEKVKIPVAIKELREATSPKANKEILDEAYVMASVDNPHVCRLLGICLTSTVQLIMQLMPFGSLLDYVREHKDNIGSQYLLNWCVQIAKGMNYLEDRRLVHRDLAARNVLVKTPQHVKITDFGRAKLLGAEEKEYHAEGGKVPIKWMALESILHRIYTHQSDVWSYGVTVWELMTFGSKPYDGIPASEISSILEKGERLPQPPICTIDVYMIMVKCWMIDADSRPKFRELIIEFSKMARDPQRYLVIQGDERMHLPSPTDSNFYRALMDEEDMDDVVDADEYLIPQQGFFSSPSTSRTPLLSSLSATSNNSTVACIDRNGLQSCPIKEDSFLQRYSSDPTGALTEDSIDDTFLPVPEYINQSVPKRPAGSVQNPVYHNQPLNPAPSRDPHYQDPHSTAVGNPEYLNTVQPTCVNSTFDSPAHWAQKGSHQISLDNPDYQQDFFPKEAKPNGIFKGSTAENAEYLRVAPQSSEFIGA
• Centrifuge (manufacturer: Eppendorf, model: 5430) • Microplate reader (manufacturer: Perkin Elmer, model: Caliper EZ ReaderII) • Echo 550 (manufacturer: Labcyte, model: Echo 550) • Experimental Method • Compound preparation: • A 10 mM storage solution was prepared.
(1) 1×Kinase buffer was prepared.
(2) Preparation of concentration gradient of compound: The tested compound has a test concentration starting from 1 μM, diluted 10 times, with 10 concentrations, and subjected to single-well or multi-well detection. The compound was diluted to a 100% DMSO solution with a final concentration of 100 times in a 384 source plate. […] of the compound at a final concentration of 100 times was transferred to the target plate 384-well-plate using the pipette Echo 550.
(3) A kinase solution with a final concentration of 2.5 times was prepared using 1× Kinase buffer.
(4) 10 μL of the kinase solution with the final concentration of 2.5 times was added to a compound well and a positive control well, respectively; 10 μL of 1×Kinase buffer was added to a negative control well.
(5) Centrifugation was conducted at 1000 rpm for 30 seconds, and the reaction plate was shaken and mixed well, and incubated at a room temperature for 10 minutes.
(6) A mixed solution of ATP with a final concentration of 5/3 times and Kinase substrate 22 was prepared using 1×Kinase buffer.
(7) A mixed solution of 15 μL of ATP with a final concentration of 5/3 times and a substrate was added for initial reaction.
(8) The 384-well-plate was centrifuged at 1000 rpm for 30 seconds, shaken and mixed well, and incubated at a room temperature for 60 minutes.
(9) 30 μL of a termination detection solution was added to stop the kinase reaction. Centrifugation was conducted at 1000 rpm for 30 seconds. Shaking and mixing well were conducted.
(10) The conversion rate was read using Caliper EZ Reader.
where Conversion %_sample is the conversion rate reading of the sample; Conversion %_min: the average value of negative control wells, representing the conversion rate reading of wells without enzyme activity; Conversion %_max: the average value of positive control wells, representing the conversion rate reading of wells without compound inhibition; % Inhibition represents the inhibition rate.
Fitting of Dose-Response Curve
Using the log value of concentration as the X-axis and the percentage inhibition rate as the Y-axis, the dose-response curve was fitted using the log(inhibitor) vs. response —Variable slope of the analysis software GraphPad Prism 5 to obtain the IC50 value of each compound on enzyme activity.

Test [2] relates to BaF3-EGFR^L858R/T790M/C797S cells. As to the kind of experiment: BaF3 cell proliferation inhibition experiment (CCK-8). The class given is cell-based. Conditions: Ba/F3 EGFR-L858R, 72 hours. An excerpt: BaF3 cell proliferation inhibition experiment: The compounds of the present invention have excellent inhibitory activity against the proliferation of BaF3-EGFR^L858R/T790M/C797S cells
A. Cell line: BaF3 cells with stable overexpression of wild-type genes are named BaF3-EGFR^WT, and BaF3 cells with stable overexpression of EGFR^L858R/T790M/C797S EGFR^del19/T790M/C797S EGFR^L858R/C797S and EGFR^del19/C797S mutant genes are named BaF3-EGFR^L858R/T790M/C797S BaF3-EGFR^del19/T790M/C797S BaF3-EGFR^L858R/C797S and BaF3-EGFR^del19/C797S cells, respectively. Mediums:
(§1) a) The medium was preheated in a 37° C. water bath.
(§2) b) The cryopreservation tube was taken from the liquid nitrogen tank, quickly placed in a 37° C. water bath, and melted completely within 1 minute.
(§3) c) The cell suspension was transferred to a 15 mL centrifuge tube containing a 10 mL medium and centrifuged at 1000 rpm for 4 minutes.
(§4) d) The supernatant was discarded, the cells were resuspended in a 1 mL medium and transferred to a […] culture dish containing a 10 mL medium, 20% serum and 50 ng/mL EGF were administered to the first-generation medium, and culture was conducted in a 37° C. and 5% CO2 incubator.
(§5) b) The cells in the culture dish were blown evenly with a 5 mL pipette, and 500 μL of the cells were pipetted out to be inoculated into a new […] culture dish and cultured in a 37° C. and 5% CO2 incubator.
(§6) a) The compound to be tested (10 mM stock solution) was diluted with 100% DMSO to 1 mM, and diluted with a culture solution in a 24-well plate to prepare of a working solution of 2 μM concentration.
(§7) b) The 2 μM working solution was diluted with a triple dilution method to obtain working solutions with approximate concentrations of 2 μM, 600 nM, 200 nM, 60 nM, and 20 nM.
(§8) a) The cells at the logarithmic growth phase were centrifuged at 1000 rpm for 4 minutes, resuspended with a medium (containing 10% serum and 50 ng/mL EGF), and counted.
(§9) b) The cells were inoculated into a 96-well plate with a cell density of 4000 cells/well, and placed in a 37° C. and 5% CO2 incubator for culture for 12 hours.
(§10) a) The prepared compound was added to a 96-well plate, with 100 μL per well. The final concentrations were 1 μM, 300 nM, 100 nM, 30 nM, 10 nM, and 0 nM, and the final concentration of DMSO was 0.2%. A medium served as a blank control.
(§11) b) The cells were placed in 37° C. and 5% CO2 incubator for culture for 72 hours.
(§12) (5) Cell Viability Testing
a) The 96-well cell culture plate was taken out, and 20 μL of a CCK-8 reagent (Cell Counting Kit-8, Topscience, Catalog No. C0005) was added in the dark.
b) Mixing well was conducted on a horizontal shaking table at a room temperature at 100 rpm for 5 minutes.
c) The culture plate was placed in a 37° C. constant-temperature incubator for incubation.
d) Starting from the addition of the CCK-8, the absorbance at 450 nm was read using the TECAN microplate reader at 1 hour, 2 hours, and 3 hours, respectively.
(§13) The data was analyzed using GraphPad Prism 8.0 software to obtain a fitted curve of activity of the compounds. The IC50 of the compounds was fitted from nonlinear regression equation.

The subject of another test is A431 cells. As to the kind of experiment: A431 cell proliferation inhibition (SRB). The class given is cell-based. Conditions: Homo sapiens, A-431, wild-type EGFR, 72 hours. Here is the method:
A431 cell proliferation inhibition: The compounds of the present invention have good selectivity to wild-type EGFR
as §1, §2, §3, §4, §5, §6, §7, §8, §9, §10, §11, §12
a) The cell supernatant was discarded, rinsed once with 1×PBS, and fixed with 10% trichloroacetic acid for 1 hour. The trichloroacetic acid was discarded, excess trichloroacetic acid was washed off with tap water, and the 96-well plate was dried in a 60° C. oven.
b) 70 μL of an SRB stain was added to each well of the dry 96-well plate for staining at a room temperature for 30 minutes. Excess SRB stain was washed off with 1% glacial acetic acid, and the 96-well plate was dried in a 60° C. oven.
c) SRB was dissolved with 100 μL of 10 mM Tris-base solution. The absorbance was detected at 540 nm ultraviolet absorption using the microplate reader. The data was analyzed.
as §13

Usually IC50 stands for the concentration needed to halve the response being measured. A high value points to weaker potency in that assay. Take `CCc1cc(Nc2ncc(Cl)c(Nc3cc(C)c(C)cc3P(C)(C)=O)n2)c(OC)cc1N1CCC2(CC1)CC(N(C)C)C2` [Compound 17, (2-((5-Chloro-2-((4-(2-(dimethylamino)-7-azaspiro[3.5]non-7-yl)-5-ethyl-2-methoxyphenyl)amino)pyrimidin-4-yl)amino)-4,5-dimethylphenyl)dimethylphosphine oxide]: the IC50 in test [1] is 0.77 nM; in test [2], 45.4 nM; in the test with A431 cells, over 500 nM. In the same order, the values of `COc1cc(N2CC3(CCN(C)CC3)C2)c(C)cc1Nc1ncc(Cl)c(Nc2cc(C)c(C)cc2P(C)(C)=O)n1` [Compound 5, (2-((5-Chloro-2-((2-methoxy-5-methyl-4-(7-methyl-2,7-diazaspiro[3.5]nonan-2-yl)phenyl)amino)pyrimidin-4-yl)amino)-4,5-dimethylphenyl)dimethylphosphine oxide] are 11 nM, 42.3 nM and over 500 nM.

`COc1cc(N2CCC3(CC2)CC(N(C)C)C3)c(Cl)cc1Nc1ncc(Cl)c(Nc2cc(C)c(C)cc2P(C)(C)=O)n1` [Compound 13, (2-((5-Chloro-2-((5-chloro-4-(2-(dimethylamino)-7-azaspiro[3.5]nonan-7-yl)-2-methoxyphenyl)amino)pyrimidin-4-yl)amino)-4,5-dimethylphenyl)dimethylphosphine oxide]: the IC50 in test [1] is 0.89 nM; in test [2], 38.1 nM; in the test with A431 cells it was over 500 nM. As for `COc1cc(N2CCC3(CC2)CC(N(C)C)C3)c(C)cc1Nc1ncc(Cl)c(Nc2ccc(C)c(C)c2P(C)(C)=O)n1` [Compound 23, (6-((5-chloro-2-((4-(2-(dimethylamino)-7-azaspiro[3.5]nonan-7-yl)-2-methoxy-5-methylphenyl)amino)pyrimidin-4-yl)amino)-2,3-dimethylphenyl)dimethylphosphine oxide], the IC50 in test [1] was 0.78 nM; in test [2] it was 39 nM; with A431 cells, over 500 nM. Regarding `CCc1cc(Nc2ncc(Cl)c(Nc3ccccc3P(C)(C)=O)n2)c(OC)cc1N1CC2(CCN(C)CC2)C1` [Comparative Compound B, (2-((5-Chloro-2-((5-ethyl-2-methoxy-4-(7-methyl-2,7-diazaspiro[3.5]nonan-2-yl)phenyl)amino)pyrimidin-4-yl)amino)phenyl)dimethylphosphine oxide, reference compound], the IC50 in test [1] is 2.3 nM; in test [2] it was 251 nM; in the test with A431 cells, 280 nM. In the same order, the values of `CCc1cc(Nc2ncc(Cl)c(Nc3cccc(Cl)c3P(C)(C)=O)n2)c(OC)cc1N1CCC2(CC1)CC(N(C)C)C2` [Compound 19, (2-chloro-6-((5-chloro-2-((4-(2-(dimethylamino)-7-azaspiro[3.5]nonan-7-yl)-5-ethyl-2-methoxyphenyl)amino)pyrimidin-4-yl)amino)phenyl)dimethylphosphine oxide] are 0.86 nM, 47.8 nM and over 500 nM. With `CCc1cc(Nc2ncc(Cl)c(Nc3cc(C)c(C)cc3P(C)(C)=O)n2)c(OC)cc1N1CCC2(CC1)CN(C)C2` [Compound 20, (2-((5-Chloro-2-((5-ethyl-2-methoxy-4-(2-methyl-2,7-diazaspiro[3.5]non-7-yl)phenyl)amino)pyrimidin-4-yl)amino)-4,5-dimethylphenyl)dimethylphosphine oxide], the IC50 in test [1] was 29 nM. In test [1], `CCc1cc(Nc2ncc(Cl)c(Nc3cc(Cl)c(Cl)cc3P(C)(C)=O)n2)c(OC)cc1N1CC2(CCN(C3CC3)CC2)C1` [Compound 37] came in with an IC50 of 0.49 nM. For `COc1cc(N2CC3(CCN(C)CC3)C2)c(Cl)cc1Nc1ncc(Cl)c(Nc2cc(C)c(C)cc2P(C)(C)=O)n1` [Compound 40], the IC50 in test [1] is 0.85 nM. The same measure, in the same setting: for `CCc1cc(Nc2ncc(Cl)c(Nc3ccc(C)c(C)c3P(C)(C)=O)n2)c(OC)cc1N1CCC2(CC1)CN(C(C)=O)C2` [Compound 30, 1-(7-(4-((5-chloro-4-((2-(dimethylphosphoryl)-3,4-dimethylphenyl)amino)pyrimidin-2-yl)amino)-2-ethyl-5-methoxyphenyl)-2,7-diazaspiro[3.5]nonan-2-yl)ethan-1-one] the value was 6.78 nM; for `COc1cc(N2CC3(CCC(N(C)C)CC3)C2)c(C)cc1Nc1ncc(Cl)c(Nc2ccc(C)c(C)c2P(C)(C)=O)n1` [Compound 3, (6-((5-Chloro-2-((4-(7-(dimethylamino)-2-azaspiro[3.5]nonan-2-yl)-2-methoxy-5-methylphenyl)amino)pyrimidin-4-yl)amino)-2,3-dimethylphenyl)dimethylphosphine oxide], 21 nM. The molecule `CCc1cc(Nc2ncc(Cl)c(Nc3cc(C)c(C)cc3P(C)(C)=O)n2)c(OC)cc1N1CC2(CCN(C)CC2)C1` [Compound 44] came in with an IC50 in test [1] of 0.48 nM. The same measure, in the same setting: in the case of `COc1cc(N2CCC3(CC2)CC(N(C)C)C3)c(C)cc1Nc1ncc(Cl)c(Nc2cc(C)c(C)cc2P(C)(C)=O)n1` [Compound 9, (2-((5-Chloro-2-((4-(2-(dimethylamino)-7-azaspiro[3.5]nonan-7-yl)-2-methoxy-5-methylphenyl)amino)pyrimidin-4-yl)amino)-4,5-dimethylphenyl)dimethylphosphine oxide] it was 7 nM; in that of `CCc1cc(Nc2ncc(Cl)c(Nc3ccc(C)c(C)c3P(C)(C)=O)n2)c(OC)cc1N1CC2(CCN(CC)CC2)C1` [Compound 27], 0.81 nM.
